Reference: patent US11980188B2, “Spiro cyclohexanedione derivates as herbicides” (SYNGENTA PARTICIPATIONS AG, priority 2018, dated 2024)

How the values were obtained:
Assay in all cases: Glasshouse herbicide test, pre- and post-emergence, percentage damage
Assay type in all cases: in vivo
Setaria faberi (SETFA) = settings: 250 g/h, evaluated after 13 days, percentage damage on five point scale; for SETFA POST: post-emergence; for SETFA PRE: pre-emergence
Procedure: (§1) Seeds of a variety of test species are sown in standard soil in pots (Lolium perenne (LOLPE), Setaria faberi (SETFA), Alopecurus myosuroides (ALOMY), Echinochloa crus-galli (ECHCG), Avena fatua (AVEFA)). After cultivation for one day (pre-emergence) or after 8 days cultivation (post-emergence) under controlled conditions in a glasshouse (at 24/16° C., day/night; 14 hours light; 65% humidity), the plants are sprayed with an aqueous spray solution derived from the formulation of the technical active ingredient in acetone/water (50:50) solution containing 0.5% Tween 20 (polyoxyethelyene sorbitan monolaurate, CAS RN 9005-64-5). Compounds are applied at […]. The test plants are then grown in a glasshouse under controlled conditions in a glasshouse (at 24/16° C., day/night; 14 hours light; 65% humidity) and watered twice daily. After 13 days for pre and post-emergence, the test is evaluated for the percentage damage caused to the plant. The biological activities are shown in the following table on a five point scale (5=80-100%; 4=60-79%; 3=40-59%; 2=20-39%; 1=0-19%).

Lolium perenne (LOLPE) = settings: 250 g/h, evaluated after 13 days, percentage damage on five point scale; for LOLPE POST: post-emergence; for LOLPE PRE: pre-emergence
Procedure: as §1

[1] = system: Echinochloa crus-galli (ECHCG); settings: 250 g/h, evaluated after 13 days, percentage damage on five point scale; for ECHCG POST: post-emergence; for ECHCG PRE: pre-emergence
Procedure: as §1

Avena fatua (AVEFA) = settings: 250 g/h, evaluated after 13 days, percentage damage on five point scale; for AVEFA POST: post-emergence; for AVEFA PRE: pre-emergence
Procedure: as §1

| SMILES | SETFA POST (Setaria faberi (SETFA)) | SETFA PRE (Setaria faberi (SETFA)) | LOLPE POST (Lolium perenne (LOLPE)) | LOLPE PRE (Lolium perenne (LOLPE)) | ECHCG POST [1] | ECHCG PRE [1] | AVEFA POST (Avena fatua (AVEFA)) | AVEFA PRE (Avena fatua (AVEFA)) |
| --- | --- | --- | --- | --- | --- | --- | --- | --- |
| Cc1cc(-c2ccc(F)cc2)cc(C)c1C1C(=O)CC2(CCN(C(=O)NC(=O)c3ccccn3)CC2)CC1=O [Compound A62] | 5 (5=80-100%) | 3 (3=40-59%) | 2 (2=20-39%) | 2 (2=20-39%) | 3 (3=40-59%) | 1 (1=0-19%) | 5 (5=80-100%) | 2 (2=20-39%) |
| CCS(=O)(=O)N1CCC2(CC1)CC(=O)C(c1c(C)cc(-c3ccc(F)cc3)cc1OC)C(=O)C2 [Compound A64] | 5 (5=80-100%) | 5 (5=80-100%) | 5 (5=80-100%) | 5 (5=80-100%) | 5 (5=80-100%) | 5 (5=80-100%) | 5 (5=80-100%) | 5 (5=80-100%) |
| COc1cc(-c2ccc(F)cc2)cc(C)c1C1C(=O)CC2(CCN(C(=O)c3ccccn3)CC2)CC1=O [Compound A66] | 5 (5=80-100%) | 5 (5=80-100%) | 5 (5=80-100%) | 5 (5=80-100%) | 5 (5=80-100%) | 5 (5=80-100%) | 5 (5=80-100%) | 5 (5=80-100%) |
| COCC(=O)N1CCC2(CC1)CC(=O)C(c1c(C)cc(-c3ccc(F)cc3)cc1OC)C(=O)C2 [Compound A67] | 5 (5=80-100%) | 5 (5=80-100%) | 5 (5=80-100%) | 5 (5=80-100%) | 5 (5=80-100%) | 5 (5=80-100%) | 5 (5=80-100%) | 5 (5=80-100%) |
| COc1cc(-c2ccc(F)cc2)cc(C)c1C1C(=O)CC2(CCN(C(=O)NC(C)(C)C)CC2)CC1=O [Compound A68] | 5 (5=80-100%) | 5 (5=80-100%) | 5 (5=80-100%) | 4 (4=60-79%) | 5 (5=80-100%) | 5 (5=80-100%) | 5 (5=80-100%) | 4 (4=60-79%) |
| COc1cc(-c2ccc(F)cc2)cc(C)c1C1C(=O)CC2(CCN(C(=O)NC(=O)C(C)(C)C)CC2)CC1=O [Compound A69] | 5 (5=80-100%) | 5 (5=80-100%) | 5 (5=80-100%) | 4 (4=60-79%) | 5 (5=80-100%) | 5 (5=80-100%) | 5 (5=80-100%) | 2 (2=20-39%) |
| COc1cc(-c2ccc(F)cc2)cc(C)c1C1C(=O)CC2(CCN(C(=O)C3CC3)CC2)CC1=O [Compound A70] | 5 (5=80-100%) | 5 (5=80-100%) | 5 (5=80-100%) | 5 (5=80-100%) | 5 (5=80-100%) | 5 (5=80-100%) | 5 (5=80-100%) | 5 (5=80-100%) |
| COc1cc(-c2ccc(F)cc2)cc(C)c1C1C(=O)CC2(CCN(C(=O)C(F)F)CC2)CC1=O [Compound A71] | 5 (5=80-100%) | 5 (5=80-100%) | 5 (5=80-100%) | 5 (5=80-100%) | 5 (5=80-100%) | 5 (5=80-100%) | 5 (5=80-100%) | 5 (5=80-100%) |
| COc1cc(-c2ccc(F)cc2)cc(C)c1C1C(=O)CC2(CCN(C(=O)C(C)(C)C)CC2)CC1=O [Compound A72] | 5 (5=80-100%) | 5 (5=80-100%) | 5 (5=80-100%) | 5 (5=80-100%) | 5 (5=80-100%) | 5 (5=80-100%) | 5 (5=80-100%) | 1 (1=0-19%) |
| COc1cc(-c2ccc(F)cc2)cc(C)c1C1C(=O)CC2(CCN(C(=O)CC#N)CC2)CC1=O [Compound A74] | 5 (5=80-100%) | 5 (5=80-100%) | 5 (5=80-100%) | 5 (5=80-100%) | 5 (5=80-100%) | 5 (5=80-100%) | 5 (5=80-100%) | 5 (5=80-100%) |
